Patent US12551523B2, “HIF-1 activator” (NUTRITION ACT CO., LTD., priority 2021, dated 2026)

System: K562 cells
Assay: GYPA gene expression in K562 cells (quantitative real-time PCR)
Type: cell-based, human
Conditions: olive leaf components alone or in combination
Description: K562 cells (Riken Cell Bank) were seeded in a 6-well plate using RPMI 1640 Medium (Gibco Waltham, MA, USA) containing 10% FBS and 1% penicillin/streptomycin solution added to a cell concentration of 2×10^4 cell/ml, and the cells were cultured in 5% CO2 at 37° C., 95% humidification. On the following day, the medium was replaced with a mixed solution of oleuropein (OP) and oleuroside (OS), and reaction was conducted for 6 days. The mixing proportions were as follows: (a) combinations of 35.36 μM OP and different concentrations of OS (1.18, 3.54, 5.23, 7.10, 17.68, 23.57, 35.36 and 43.85 μM), and (b) combinations of 5.23 μM OS and different concentrations of OP (0.52, 2.62, 5.23, 10.46, 20.92, 35.36, 41.84 and 52.30 μM). The medium was replaced every 3 days.
After 6 days of reaction, the medium was removed from the cells, Isogen (Nippon Gene Co., Ltd.) was added for sonication, and the total RNA was extracted according to the manufacturer's protocol. The RNA concentration was measured using a NanoDrop 2000 spectrometer (Thermo Scientific, USA). For cDNA synthesis, 4 μl of SuperScript IV VILO Master Mix (Invitrogen) and 16 μl of total RNA solution (final RNA concentration: 10 ng/20 μl) were mixed in a PCR tube, and a MiniAmp Plus thermal cycler (Applied Biosystems) was used for reverse transcription. The thermal cycle was 10 minutes at 25° C., 10 minutes at 50° C., 5 minutes at 85° C. and 1 minute at 4° C. Quantitative real-time PCR was carried out for gene expression analysis. The Taqman primer and probe set used for the target gene expression analysis was the following: GYPA (Hs011068079_s1). ACTB (Hs03023880 g1 was used as the endogenous standard. For Taqman real-time PCR amplification reaction and gene expression level quantitation, 10 μL of TaqMan Gene Expression Master Mix (Applied Biosystems), 1 μL of each primer and probe set and 9 μL of cDNA (final cDNA concentration: […]) were mixed, and an AB 7500 Fast Real-Time PCR system (Applied Biosystems) was used. The thermal cycle was 2 minutes at 50° C., 10 minutes at 95° C., 15 seconds at 95° C. (50 cycles) and 1 minute at 60° C. The gene expression levels were calculated by the ΔΔCt method.
Two types of olive leaf extract with different content ratios of oleuropein and oleuroside were used to treat K562 cells, and the GYPA gene expression levels were measured by real-time PCR, as an erythroid differentiation marker. The test substances used were olive leaf extract A: 120 μg/mL (1.89 μg oleuroside: 15.44 μg oleuropein) (“extract A”, corresponding to the invention), and olive leaf extract B: 120 μg/mL (1.56 μg oleuroside: 40.26 μg oleuropein) (“extract B”).
The hydroxytyrosol, oleuropein, oleuroside, apigenin, apigenin-7-glucoside, apigenin-7-O-rutinoside, luteolin and luteolin-7-O-glucoside present in olive leaves were used either alone or in combination to measure the GYPA gene expression effect by the same method as for the synergistic effect with OP/OS at 10:1 to 1:10 using GYPA as the marker. GYPA gene expression increased only with the combination of oleuroside and oleuropein.

Row | Structure (SMILES) | GYPA expression increase
1 | O=c1cc(-c2ccc(O)cc2)oc2cc(O[C@@H]3O[C@H](CO)[C@@H](O)[C@H](O)[C@H]3O)cc(O)c12 [A7G, Apigenin-7-O-glucoside] | No
2 | C[C@@H]1O[C@@H](OC[C@H]2O[C@@H](Oc3cc(O)c4c(=O)cc(-c5ccc(O)cc5)oc4c3)[C@H](O)[C@@H](O)[C@@H]2O)[C@H](O)[C@H](O)[C@H]1O [A7R, Apigenin-7-O-rutinoside] | No
3 | O=c1cc(-c2ccc(O)cc2)oc2cc(O)cc(O)c12 [A, Apigenin] | No
4 | O=c1cc(-c2ccc(O)c(O)c2)oc2cc(O)cc(O)c12 [L, Luteolin] | No
5 | C/C=C1/[C@H](O[C@@H]2O[C@H](CO)[C@@H](O)[C@H](O)[C@H]2O)OC=C(C(=O)OC)[C@H]1CC(=O)OCCc1ccc(O)c(O)c1 [OP, Oleuropein] | No
6 | O=c1cc(-c2ccc(O)c(O)c2)oc2cc(O[C@@H]3O[C@H](CO)[C@@H](O)[C@H](O)[C@H]3O)cc(O)c12 [L7G, Luteolin-7-O-glucoside] | No

Same assay, conditions: olive leaf components alone or in combination, listed as oleuropein

Row | Structure (SMILES) | GYPA expression increase
7 | C/C=C1/[C@H](O[C@@H]2O[C@H](CO)[C@@H](O)[C@H](O)[C@H]2O)OC=C(C(=O)OC)[C@H]1CC(=O)OCCc1ccc(O)c(O)c1 [OP, Oleuropein] | No effect
